Reference: ChEMBL document CHEMBL5608178, “Design and synthesis of 7-membered lactam fused hydroxypyridinones as potent metal binding pharmacophores (MBPs) for inhibiting influenza virus PAN endonuclease” (Eur J Med Chem, 2024)

Assays:
[1] = target: Polymerase acidic protein (Influenza A virus (A/Puerto Rico/8/1934(H1N1))) (UniProt P03433); experiment: Inhibition of Influenza A virus N-terminal Polymerase acidic protein endonuclease activity in HEK293T cells transfected with IAV RNA polymerase complex and firefly/renilla luciferase reporter at 10 uM by […] Dual-Glo luciferase assay relative to control; type: cell-based
[2] = target: Polymerase acidic protein (Influenza A virus (A/Puerto Rico/8/1934(H1N1)), UniProt P03433); experiment: Inhibition of Influenza A virus N-terminal Polymerase acidic protein endonuclease activity in HEK293T cells transfected with IAV RNA polymerase complex and firefly/renilla luciferase reporter by […] Dual-Glo luciferase assay; type: cell-based
Influenza A virus [3] = experiment: Antiviral activity against Influenza A virus A/WSN/33, H1N1 infected in MDCK cells assessed as decrease in viral replication incubated for 72 hrs; type: functional, organism-based; conditions: A/WSN/33, H1N1, MDCK
[4] = Cytotoxicity against MDCK cells assessed as decrease in survival rate; type: toxicity, cell-based, Canis lupus familiaris; conditions: dog
Influenza A virus [5] = experiment: Antiviral activity against Influenza A virus A/WSN/33, H1N1 infected in MDCK cells assessed as suppression of viral titer at 3 uM incubated for 72 hrs relative to control; type: functional

Compound | inhibition [1] | IC50 [2] | EC50 (Influenza A virus [3]) | CC50 [4] | Activity (Influenza A virus [5])
C[C@@H]1CN(C2c3ccccc3CCc3ccccc32)n2ccc(=O)c(O)c2C(=O)N1 | 75.3% | – | – | – | –
O=C1N[C@H](Cc2ccccc2)CN(C2c3ccccc3CCc3ccccc32)n2ccc(=O)c(O)c21 | 49.5% | – | – | – | –
O=C1c2c(O)c(=O)ccn2N(C2c3ccccc3CCc3ccccc32)C[C@@H]2CCCCN12 | 36.5% | – | – | – | –
O=C1c2c(O)c(=O)ccn2N(C2c3ccccc3CCc3ccccc32)C[C@H]2CCCN12 | 81.1% | 2870 nM | 724 nM | 34300 nM | –
O=C1N[C@H](c2ccccc2)CN(C2c3ccccc3CCc3ccccc32)n2ccc(=O)c(O)c21 | 31.6% | – | – | – | –
O=C1NC2(CCCC2)CN(C2c3ccccc3CCc3ccccc32)n2ccc(=O)c(O)c21 | 9.2% | – | – | – | –
CC(C)C[C@H]1CN(C2c3ccccc3CCc3ccccc32)n2ccc(=O)c(O)c2C(=O)N1 | 22.4% | – | – | – | –
CC(C)[C@H]1CN(C2c3ccccc3CCc3ccccc32)n2ccc(=O)c(O)c2C(=O)N1 | 31% | – | – | – | –
O=C1N[C@@H](Cc2ccccc2)CN(C2c3ccccc3CCc3ccccc32)n2ccc(=O)c(O)c21 | 49% | – | – | – | –
O=C1c2c(O)c(=O)ccn2N(C2c3ccccc3CCc3ccccc32)C[C@H]2CCCCN12 | 66.9% | – | – | – | –
C[C@H]1CN(C2c3ccccc3CCc3ccccc32)n2ccc(=O)c(O)c2C(=O)N1 | 37.6% | – | – | – | –
O=C1c2c(O)c(=O)ccn2N(C(c2ccc(F)cc2)c2ccc(F)cc2)C[C@H]2CCCN12 | 50.1% | – | – | – | –
O=C1c2c(O)c(=O)ccn2N(C2c3ccccc3C=Cc3ccccc32)C[C@H]2CCCN12 | 91.9% | 437 nM | 292 nM | 62900 nM | 82.2%
O=C1c2c(O)c(=O)ccn2N(C2c3ccccc3SCc3c2ccc(F)c3F)C[C@H]2CCCN12 (stereo not given in full) | 99.6% | 82 nM | 421 nM | 29600 nM | 99.9%
O=C1c2c(O)c(=O)ccn2N(C2c3ccccc3CCc3ccccc32)C[C@@H]2CCCN12 | 68.2% | – | – | – | –
O=C1c2c(O)c(=O)ccn2N([C@@H]2c3ccccc3SCc3c2ccc(F)c3F)C[C@H]2CCCN12 | – | 45 nM | 134 nM | 15400 nM | –
O=C1c2c(O)c(=O)ccn2N([C@@H]2c3ccccc3SCc3c2ccc(F)c3F)[C@@H]2COCCN12 [BALOXAVIR] | 99% | 1 nM | 1 nM | 28800 nM | –
CC(C)C[C@@H]1CN(C2c3ccccc3CCc3ccccc32)n2ccc(=O)c(O)c2C(=O)N1 | 56.4% | – | – | – | –
CSCC[C@@H]1CN(C2c3ccccc3CCc3ccccc32)n2ccc(=O)c(O)c2C(=O)N1 | 64.2% | – | – | – | –
O=C1c2c(O)c(=O)ccn2N(C(c2ccccc2)c2ccccc2)C[C@H]2CCCN12 | 48.2% | – | – | – | –
CSCC[C@H]1CN(C2c3ccccc3CCc3ccccc32)n2ccc(=O)c(O)c2C(=O)N1 | 30.5% | – | – | – | –
O=C1c2c(O)c(=O)ccn2N([C@H]2c3ccccc3SCc3c2ccc(F)c3F)C[C@H]2CCCN12 | – | 231 nM | 2880 nM | 98500 nM | –
